Source: patent US10251863B2, “Parasiticidal compositions comprising indole derivatives, methods and uses thereof” (MERIAL, INC., priority 2014, dated 2019)
Where two headings read alike, the source gives them in different places.

Legend:
adult F. hepatica = test: in vitro test on adult F. hepatica (viability scale); format: cell-based; conditions: Fasciola hepatica, read-out: Effective in vitro concentration
Experimental: Representative compounds of formula (I) were tested in vitro against F. hepatica as follows. Adult F. hepatica (fluke) were collected from infected bovine livers obtained from a local abattoir (Basel, Switzerland). The worms were quickly washed with 0.9% (w/v) NaCl and placed in 6 or 12-well plates (Costar). Culture medium in each well contained RPMI 1640 (Gibco) at 37° C., which was supplemented with antibiotics (50 μg/ml streptomycin and 50 IU/ml penicillin; Gibco) and 80 μg/ml of a haemin solution. The haemin solution was prepared as follows: 5 mg haemin was dissolved in 1 ml of 0.1M aqueous solution of NaOH, and 3.95 ml of PBS (pH=7.4) and 0.05 ml of 1M HCl were added to adjust the pH to 7.1-7.4 (Keiser and Morson, 2008). Cultures were kept at 37° C. in an atmosphere of 5% CO2. To monitor the temporal effects of test compounds in vitro, 3 flukes were incubated for 72 h in the presence of 50 or 100 μg/ml of each test compound. At 24, 48, and 72 h, worms were examined using a dissecting microscope. For the adult worms, a viability scale ranging from 3 (normal movements) to 0 (death; no movement observed for two min using a microscope) was used.
Table 1 lists representative compounds of formula (I) of the present invention and their effective in vitro concentrations against F. hepatica. All compounds were tested in vitro on the adult stage of F. hepatica as described above. Each data point refers to at least two independent experiments having at least three worms per concentration.

[1] = system: liver fluke newly-excysted juveniles (NEJs); test: fluke motility assay, digital image-based, newly-excysted juveniles (NEJs); format: cell-based, Fasciola hepatica; conditions: for concentration effective on motility (effective only at) / inhibition of motility compared with TCBZ and TCBZ-SO: 18 h; for concentration effective on motility (effective only at): tested 10 μM-1 nM; for inhibition of motility compared with TCBZ and TCBZ-SO: final concentrations 10 μM-1 nM
Experimental: Further testing employed a fluke motility assay. Compounds 332, 336 and 351 were screened for activity against liver fluke newly-excysted juveniles (NEJs) in a digital image-based motility assay, based on measurement of the rate of change in worm length (μm/min) during peristaltic motility. Newly excised worms were immediately placed into a solution of drug in RPMI (final concentrations 10 μM-1 nM), alongside untreated and vehicle controls, and triclabendazole/triclabendazole sulfoxide (i.e., TCBZ/TCBZ-SO) at matching concentrations, for a period of 18 h. Each treatment group consisted of 15-20 NEJs. […] Each data point represents mean length change (μm/min) in an individual worm during a five minute recording period. Horizontal lines represent data set means. ****, p<0.0001; ***, p<0.001; **, p<0.01; *, p<0.05.

[2] = adult stage of F. hepatica, incubated up to 72 h, viability scale 3 to 0, at least two independent experiments, at least three worms per concentration
[3] = 18 h in drug in RPMI, rate of change in worm length (μm/min)

Compound	minimal effective concentration (adult F. hepatica; [2]) [µg/mL]	further results
N#Cc1ccccc1-c1cc2cc(C(F)(F)F)[nH]c2cc1Cl [Compound 359, 2-[6-Chloro-2-(trifluoromethyl)-1H-indol-5-yl]benzonitrile]	> 2.5	–
CN(C)Cc1ccccc1-c1cc2cc(C(F)(F)F)[nH]c2cc1Cl.Cl [Compound 360-0A, ([2-[6-Chloro-2-(trifluoromethyl)-1H-indol-5-yl]phenyl]methyl)dimethylamine hydrochloride]	> 2.5	–
FC(F)(F)c1cc2cc(-c3ccc(Cl)c(Cl)c3)c(Cl)cc2[nH]1 [Compound 348, 6-chloro-5-(3,4-dichlorophenyl)-2-(trifluoromethyl)-1H-indole]	< 10	–
CN(C)Cc1ccccc1-c1cc2cc(C(F)(F)F)[nH]c2cc1Cl [Compound 360, ([2-[6-Chloro-2-(trifluoromethyl)-1H-indol-5-yl]phenyl]methyl)dimethylamine]	> 2.5	–
Fc1ccc(-c2cc3cc(C(F)(F)F)[nH]c3cc2Cl)c(Cl)c1 [Compound 356, 6-chloro-5-(2-chloro-4-fluorophenyl)-2-(trifluoromethyl)-1H-indole]	< 10	–
FC(F)(F)c1cc2cc(-c3ccc(Cl)cc3)c(Cl)cc2[nH]1 [Compound 343, 6-chloro-5-(4-chlorophenyl)-2-(trifluoromethyl)-1H-indole]	< 10	–
Cl.FC(F)(F)c1cc2cc(-c3ccncc3)c(Cl)cc2[nH]1 [Compound 354, 6-chloro-5-(pyridin-4-yl)-2-(trifluoromethyl)-1H-indole hydrochloride]	> 2.5	–
CSc1nc2cc(Cl)c(Oc3cccc(Cl)c3Cl)cc2[nH]1 [TCBZ, triclabendazole, reference compound]	–	concentration effective on motility (effective only at) [1]: 10 µM
N#Cc1ccc(-c2cc3cc(C(F)(F)F)[nH]c3cc2Cl)c(Cl)c1 [Compound 355, 3-chloro-4-[6-chloro-2-(trifluoromethyl)-1H-indol-5-yl]benzonitrile]	–	minimal effective concentration (adult F. hepatica; 72 h): > 2.5 µg/mL
FC(F)(F)c1cc2cc(-c3ccc(Cl)cc3Cl)c(Cl)cc2[nH]1 [Compound 357, 6-Chloro-5-(2,4-dichlorophenyl)-2-(trifluoromethyl)-1H-indole]	< 10	–
FC(F)(F)c1ccc(-c2cc3cc(C(F)(F)C(F)(F)F)[nH]c3cc2Cl)c(Cl)c1 [Compound 340, 6-chloro-5-[2-chloro-4-(trifluoromethyl)phenyl]-2-(pentafluoroethyl)-1H-indole]	< 10	–
FC(F)(F)c1cc2cc(-c3ccccc3Cl)c(Cl)cc2[nH]1 [Compound 346, 6-chloro-5-(2-chlorophenyl)-2-(trifluoromethyl)-1H-indole]	< 10	–
O=C(O)c1ccccc1-c1cc2cc(C(F)(F)F)[nH]c2cc1Cl [Compound 358, 2-[6-Chloro-2-(trifluoromethyl)-1H-indol-5-yl]benzoic acid]	> 2.5	–
Fc1ccc(-c2cc3cc(C(F)(F)F)[nH]c3cc2Cl)cc1 [Compound 344, 6-chloro-5-(4-fluorophenyl)-2-(trifluoromethyl)-1H-indole]	< 10	–
FC(F)(F)c1ccc(-c2ccc3[nH]c(C(F)(F)F)cc3c2)c(Cl)c1 [Compound 332, 5-[2-chloro-4-(trifluoromethyl)phenyl]-2-(trifluoromethyl)-1H-indole]	< 10	inhibition of motility compared with TCBZ and TCBZ-SO [1]: more potent inhibition of motility than either TCBZ; concentration that completely abolished motility [1, 3]: 1 µM
FC(F)(F)c1ccc(-c2cc3cc(C(F)(F)C(F)(F)C(F)(F)F)[nH]c3cc2Cl)c(Cl)c1 [Compound 341, 6-chloro-5-[2-chloro-4-(trifluoromethyl)phenyl]-2-(heptafluoropropyl)-1H-indole]	> 10	–

Compound	minimal effective concentration (adult F. hepatica; [2]) [µg/mL]	further results
Cc1cc2cc(-c3ccc(C(F)(F)F)cc3Cl)c(Cl)cc2[nH]1 [Compound 337, 6-chloro-5-[2-chloro-4-(trifluoromethyl)phenyl]-2-methyl-1H-indole]	< 10	–
FC(F)(F)c1cc2cc(-c3ccncc3Cl)c(Cl)cc2[nH]1 [Compound 361, 6-chloro-5-(3-chloropyridin-4-yl)-2-(trifluoromethyl)-1H-indole]	< 10	–
FC(F)(F)c1cc2cc(Oc3ccc(Cl)cc3)c(Cl)cc2[nH]1 [Compound 350, 6-chloro-5-(4-chlorophenoxy)-2-(trifluoromethyl)-1H-indole]	≤ 10	–
CCCc1cc2cc(-c3ccc(C(F)(F)F)cc3Cl)c(Cl)cc2[nH]1 [Compound 339, 6-chloro-5-[2-chloro-4-(trifluoromethyl)phenyl]-2-propyl-1H-indole]	< 10	–
FC(F)(F)c1ccc(-c2cc3cc(C(F)(F)F)[nH]c3cc2Cl)c(Cl)c1 [Compound 336, 6-chloro-5-[2-chloro-4-(trifluoromethyl)phenyl]-2-(trifluoromethyl)-1H-indole]	< 10	inhibition of motility compared with TCBZ and TCBZ-SO [1]: more potent inhibition of motility than either TCBZ; concentration that significantly impacted motility [1, 3]: 100 nM
C[S+]([O-])c1nc2cc(Oc3cccc(Cl)c3Cl)c(Cl)cc2[nH]1 (centres unmarked) [TCBZ-SO, triclabendazole sulfoxide, reference compound]	–	concentration effective on motility (effective only at) [1]: 10 µM
FC(F)(F)c1cc2cc(-c3cccc(Cl)c3)c(Cl)cc2[nH]1 [Compound 347, 6-chloro-5-(3-chlorophenyl)-2-(trifluoromethyl)-1H-indole]	≤ 10	–
FC(F)(F)c1cc2cc(-c3ccc(Cl)cc3C(F)(F)F)c(Cl)cc2[nH]1 [Compound 342, 6-chloro-5-[4-chloro-2-(trifluoromethyl)phenyl]-2-(trifluoromethyl)-1H-indole]	< 10	–
FC(F)(F)c1ccc(Oc2cc3cc(C(F)(F)F)[nH]c3cc2Cl)cc1 [Compound 352, 6-chloro-2-(trifluoromethyl)-5-[4-(trifluoromethyl)phenoxy]-1H-indole]	> 10	–
FC(F)(F)c1cc2cc(-c3ccncc3)c(Cl)cc2[nH]1 [Compound 349, 6-chloro-5-(pyridin-4-yl)-2-(trifluoromethyl)-1H-indole]	≤ 10	–
FC(F)(F)c1ccc(-c2ccc3cc(C(F)(F)F)[nH]c3c2)c(Cl)c1 [Compound 334, 6-[2-chloro-4-(trifluoromethyl)phenyl]-2-(trifluoromethyl)-1H-indole]	< 10	–
FC(F)(F)c1cc2cc(Oc3ccccc3Cl)c(Cl)cc2[nH]1 [Compound 351, 6-chloro-5-(2-chlorophenoxy)-2-(trifluoromethyl)-1H-indole]	< 10	inhibition of motility compared with TCBZ and TCBZ-SO [1]: more potent inhibition of motility than either TCBZ; concentration that completely abolished motility [1, 3]: 1 µM
Cl.FC(F)(F)c1cc2cc(Oc3ccncc3)c(Cl)cc2[nH]1 [Compound 362-0A, 6-chloro-5-(pyridin-4-yloxy)-2-(trifluoromethyl)-1H-indole hydrochloride]	> 2.5	–
CCc1cc2cc(-c3ccc(C(F)(F)F)cc3Cl)c(Cl)cc2[nH]1 [Compound 338, 6-chloro-5-[2-chloro-4-(trifluoromethyl)phenyl]-2-ethyl-1H-indole]	< 10	–
FC(F)(F)c1ccc(-c2cc3cc(C(F)(F)F)[nH]c3cc2Cl)cc1 [Compound 345, 6-chloro-2-(trifluoromethyl)-5-[4-(trifluoromethyl)phenyl]-1H-indole]	< 10	–
Cl.FC(F)(F)c1cc2cc(-c3ccncc3Cl)c(Cl)cc2[nH]1 [Compound 361-0A, 6-chloro-5-(3-chloropyridin-4-yl)-2-(trifluoromethyl)-1H-indole hydrochloride]	< 10	–
